Earlier results, collected in US20060079481A1, “Method of treating/preventing mucositis” (priority 2004, published 2006).

B1: filgrastim: a granulocyte colony-stimulating factor (protein, chains of the INN, looked up)
chain: MTPLGPASSLPQSFLLKCLEQVRKIQGDGAALQEKLCATYKLCHPEELVLLGHSLGIPWAPLSSCPSQALQLAGCLSQLHSGLFLYQGLLQALEGISPELGPTLDTLQLDVADFATTIWQQMEELGMAPALQPTQGAMPAFASAFQRRAGGVLVASHLQSFLEVSYRVLRHLAQP

How the values were obtained:
oral mucositis [1] = settings: Dodd et al. 1996
oral mucositis [2] = settings: for effect in oral mucositis / risk of indirect mucotoxicity from bacteria and fungi: literature reports; for risk of indirect mucotoxicity from bacteria and fungi: prophylactic use

Row | Molecule | effect in oral mucositis (oral mucositis [2]) | risk of indirect mucotoxicity from bacteria and fungi (oral mucositis [2]) | also measured
1 | O=c1[nH]cc(F)c(=O)[nH]1 [5-fluorouracil] |  |  | prevalence of chemotherapy-induced oral mucositis (oral mucositis [1]): 75%
2 | Oc1ncnc2[nH]ncc12 [allopurinol] | failed to show effect |  | 
3 | [H]/N=C(\N/C(=N/[H])NCCCCCCNC(=N)NC(=N)Nc1ccc(Cl)cc1)Nc1ccc(Cl)cc1 [chlorhexidine] |  | reduce the risk | 
4 | Clc1ccccc1C(c1ccccc1)(c1ccccc1)n1ccnc1 [clotrimazole] |  | reduce the risk | 
5 | C[C@@H]1[C@H](O)[C@@H](C)/C=C/C=C/CC/C=C/C=C/C=C/C=C/C(O[C@H]2O[C@H](C)[C@@H](O)[C@H](N)[C@@H]2O)CC2O[C@](O)(CC(O)C(O)CCC(O)CC(O)CC(O)CC(=O)O[C@H]1C)CC(O)C2C(=O)O (stereo partly drawn) [nystatin] |  | reduce the risk | 
6 | CC(=O)CCCCn1c(=O)c2c(ncn2C)n(C)c1=O [pentoxifylline] | failed to show effect |  | 
7 | CCCCC[C@H](O)/C=C/[C@H]1[C@H](O)CC(=O)[C@@H]1C/C=C\CCCC(=O)O [prostaglandin E2] | failed to show effect |  | 
8 | Sucralfate |  |  | benefit in oral mucositis (oral mucositis [2]; patients receiving a cisplatin/fluorouracil regimen for various solid tumors (Pfeiffer et al. 1990)): modest benefit
9 | B1 | failed to show effect |  | 
